Measurements: publication PMC7357171 (Toxicological Sciences, 2020)
Marks after values point to notes of the source that are not given here.

Tests used:
[1] = tested on: LPS-stimulated PBMC and endothelial cell coculture system; experiment: BioMap Diversity 8 Panel, LPS system; assay type: cell-based, human; conditions: up to 500 µM
[2] = Determination of the margin of safety; conditions: for Preliminary MoS (range): PoDs of the in vitro bioactivity characterization step
HepaRG 2D = experiment: High-throughput transcriptomics
[3] = tested on: SAg-stimulated PBMC and endothelial cell coculture system; experiment: BioMap Diversity 8 Panel, SAg system; assay type: cell-based, human; conditions: up to 500 µM
HepaRG 3D [4] = experiment: In vitro cell stress panel in HepaRG 3D spheroids; assay type: cell-based, human
CYP2A6 = biological target: T1, CYP2A6 (Homo sapiens, UniProt P11509); experiment: Compound stability in expressed human CYP2A6; conditions: heterologously expressed (recombinant) CYP2A6
T1 sequence (P11509 1-494): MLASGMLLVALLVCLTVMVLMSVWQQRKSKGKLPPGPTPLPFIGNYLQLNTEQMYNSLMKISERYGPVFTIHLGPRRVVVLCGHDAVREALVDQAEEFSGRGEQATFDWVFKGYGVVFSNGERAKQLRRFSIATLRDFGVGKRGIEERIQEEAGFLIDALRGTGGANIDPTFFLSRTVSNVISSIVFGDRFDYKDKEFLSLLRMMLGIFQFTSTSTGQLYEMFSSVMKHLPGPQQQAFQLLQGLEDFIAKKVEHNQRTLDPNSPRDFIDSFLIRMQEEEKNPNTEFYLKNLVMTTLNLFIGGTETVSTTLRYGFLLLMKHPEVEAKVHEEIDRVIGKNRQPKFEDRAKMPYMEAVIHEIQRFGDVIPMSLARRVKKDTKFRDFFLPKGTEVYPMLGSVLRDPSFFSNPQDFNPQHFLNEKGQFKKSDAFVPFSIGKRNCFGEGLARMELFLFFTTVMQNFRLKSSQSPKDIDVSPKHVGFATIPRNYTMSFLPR

HepaRG 3D [5] = experiment: High-throughput transcriptomics; assay type: cell-based, human
[6] = biological target: carbonic anhydrase type I; conditions: read-out: Ki used as PoD for the MoS calculation; ref PubChem; cited from earlier work
MAO-B = conditions: ref Gnerre et al., 2000; cited from earlier work
[7] = biological target: carbonic anhydrase type IV; conditions: read-out: Ki used as PoD for the MoS calculation; ref PubChem; cited from earlier work
MAO-A [8] = biological target: T2, MAO-A (Rattus norvegicus, UniProt P21396); conditions: ref Gnerre et al., 2000; cited from earlier work
T2 sequence (P21396 1-526): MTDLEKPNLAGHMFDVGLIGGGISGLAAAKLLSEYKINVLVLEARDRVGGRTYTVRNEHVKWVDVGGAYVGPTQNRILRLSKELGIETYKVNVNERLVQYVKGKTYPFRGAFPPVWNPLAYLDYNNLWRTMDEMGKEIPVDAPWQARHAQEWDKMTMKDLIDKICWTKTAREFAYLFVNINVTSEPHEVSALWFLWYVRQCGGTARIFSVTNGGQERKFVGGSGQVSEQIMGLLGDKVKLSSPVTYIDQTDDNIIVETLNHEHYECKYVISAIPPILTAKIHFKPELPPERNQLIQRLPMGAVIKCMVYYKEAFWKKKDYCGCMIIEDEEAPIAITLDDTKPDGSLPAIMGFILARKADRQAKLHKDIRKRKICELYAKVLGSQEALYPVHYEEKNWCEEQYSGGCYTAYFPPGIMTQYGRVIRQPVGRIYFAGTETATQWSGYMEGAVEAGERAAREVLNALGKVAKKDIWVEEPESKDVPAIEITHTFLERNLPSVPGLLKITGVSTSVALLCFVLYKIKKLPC

MCF7 = experiment: High-throughput transcriptomics
MAO-A [9] = biological target: T2, MAO-A; experiment: SafetyScreen44 MAO-A; assay type: binding; conditions: coumarin 10 µM
mES reporter cell lines = experiment: ToxTracker genotoxicity assay; assay type: cell-based
[10] = tested on: 8 cell-based human primary cell cultures (or cocultures); conditions: ref ToxCast, CompTox Chemicals Dashboard; cited from earlier work
[11] = assessment factor of 100 on the animal NOAEL; ref EFSA, 2008; cited from earlier work
[12] = Human cryopreserved hepatocyte stability assay; assay type: in vitro ADME; conditions: cryopreserved hepatocytes

O=c1ccc2ccccc2o1 [Coumarin]
biomarkers affected [1]: No biomarkers were affected | Body Lotion Min. 5th percentile MoS ([2]; PubChem, Carbonic Anhydrase Type I): 158 | Preliminary MoS (range) ([2]; body lotion): 158-22048 | MoS (the 5th percentile), all PoDs ([2]; face cream and body lotion): higher than 100 | Preliminary MoS (range) ([2]; face cream): 706-96738 | cytotoxicity (> 20%) (HepaRG 2D; 2D HepaRG, up to the maximum tested concentration, data not shown): No significant cytotoxicity | PoDT, Mean BMD of genes between 25th and 75th percentile (HepaRG 2D; HepaRG 2D, 24 h): 59 µM | number of pathways in pathway-level tests (HepaRG 2D; HepaRG 2D, 24 h): 17 pathways | biomarkers affected [3]: No biomarkers were affected | biomarker changes at 24 h (HepaRG 3D [4]): no changes | half-life at 1 µM (CYP2A6): < 5 min | summarized PoDs after 24 h exposure (range) (HepaRG 3D [5]): 41 to 55 µM | PoDT, BMD of Reactome pathway with lowest BMD that meets significance threshold criteria (HepaRG 3D [5]; 24 h): 41 µM | number of genes in gene-level tests (HepaRG 3D [5]; 24 h): (9 genes) | PoDT, Mean BMD of genes between 25th and 75th percentile (HepaRG 3D [5]; 24 h, fewer than 20 genes (*)): 46* µM | PoDT, 20 pathways with the lowest BMD Reactome (HepaRG 3D [5]; 24 h, fewer than 20 pathways (*)): 46* µM | number of genes in gene-level tests (HepaRG 3D [5]; 24 h, listed as coumarin): 9 genes | number of pathways in pathway-level tests (HepaRG 3D [5]; 24 h, listed as coumarin): 2 pathways | Ki [6]: 3 µM | PoDT, 20 pathways with the lowest BMD Reactome (HepG2; HepG2, 24 h): 44 µM | PoDT, BMD of Reactome pathway with lowest BMD that meets significance threshold criteria (HepG2; HepG2, 24 h): 31 µM | PoDT, Mean BMD of genes between 25th and 75th percentile (HepG2; HepG2, 24 h): 17 µM | number of genes in gene-level tests (HepG2; HepG2, 24 h): (1570 genes) | number of pathways in pathway-level tests (HepG2; HepG2, 24 h): (308 pathways) | cytotoxicity (> 20%) (HepG2; HepG2, up to the maximum tested concentration, data not shown): No significant cytotoxicity | IC50 (MAO-B): 40.7 µM | Ki [7]: 62.3 µM | IC50 (MAO-A [8]): 12 µM | PoDT, Mean BMD of genes between 25th and 75th percentile (MCF7; MCF7, 24 h): 1 µM | cytotoxicity (> 20%) (MCF7; MCF7, up to the maximum tested concentration, data not shown): No significant cytotoxicity | Mean % inhibition, Specific binding (MAO-A [9]): 22% | Blvrb-GFP oxidative stress marker (mES reporter cell lines; presence of S9, 24 h): activated | Btg2-GFP reporter (p53 response) activation (mES reporter cell lines; presence of S9, 24 h): weak activation | Srxn1-GFP oxidative stress marker (mES reporter cell lines; presence of S9, 24 h): activated | cytotoxicity (mES reporter cell lines; up to 1000 µM, absence or presence of S9): No significant cytotoxicity | Srxn1-GFP oxidative stress reporter (mES reporter cell lines; without metabolic activation, 24 h): induced | concentration-response in BioMap data generated during the ToxCast program [10]: No concentration-response | tolerable daily intake (TDI) for coumarin in foods [11]: 0 to 0.1 mg/kg/day | half-life [12]: 13 min
